The results in this text go back to ChEMBL document CHEMBL3507680, “University of Dundee, Gates Library screen for HepG2 cell viability”.

SMILES strings stand for the structures.

A short description of this data set: Human HepG2 cell viability assay in 384 well format. It counts as toxicity, cell-based. Set-up: dose 125 nL, time 70.5 hour; cytotoxicity at 70.5 h: concentration not given beside the values. To be noted: HepG2 cells, read-out: Inhibition.

For the molecule `CCC(CC)C(=O)c1c[nH]c(C(=O)N2CCN(c3ccccc3)CC2)c1`, the cytotoxicity at 70.5 h is -3.31%.
Then `N#Cc1c(Cl)nsc1NCCN1CCOCC1`, with -10.1%.
Consider `CO[C@H]1C[C@@H]2CN(C(=O)c3n[nH]c4c3CCCC4)C[C@@H]2C1`, for which the cytotoxicity at 70.5 h was determined as 11%.
For `NC(=O)c1sc2ccccc2c1C1CCN(S(=O)(=O)N2CCOCC2)C1` (configuration not stated), the cytotoxicity at 70.5 h is 1.58%.
The same measure for `CCN(CC)S(=O)(=O)NCc1ccc(-c2ccc(C(N)=O)c(C)n2)cc1`: -12.3%.
Take `O=S1(=O)NC(c2ccnc(N3CCOCC3)n2)=Nc2ccccc21`: the cytotoxicity at 70.5 h was -9.53%.
In the case of `O=S1(=O)NC(c2ccnc(N3CCCC3)n2)=Nc2ccccc21`, the cytotoxicity at 70.5 h was -3.65%.
Regarding `COc1ccc2c(c1)c(-c1nc(N(C)C)ncc1CN)cn2C`, the cytotoxicity at 70.5 h turned out to be 12.9%.
For `Oc1cc(-c2nccs2)nc(C2CCN(Cc3cccs3)CC2)n1`, the cytotoxicity at 70.5 h was -8.93%.
The same measure for `CNc1ncccc1CN1CCC1c1cc(N)nc(C)n1` (configuration not stated): 12.5%.
`O=C(c1cc(-n2cccn2)ccc1Cl)N1CCCC(N2CCCC2)C1` (configuration not stated): the cytotoxicity at 70.5 h is -5.55%.
As to `CCNC(=O)C1(Cc2cc(-c3ccccc3)no2)CCCN(C)C1` (configuration not stated), the cytotoxicity at 70.5 h is -5.43%.
Then `Cc1nnc(N2CCOC(C)(C(=O)NC3CCCC3)C2)c2ccccc12` (configuration not stated), with -3.81%.
Take `Cc1cc(-c2nccs2)nc(C2CCN(Cc3cccs3)CC2)n1`: the cytotoxicity at 70.5 h was -5.42%.
With `COCCCNc1ncc(-c2cccc(F)c2)c(-c2nccn2C)n1`, the cytotoxicity at 70.5 h was -6.45%.
With `O=C(CC1CCN(c2cccnn2)CC1)Nc1nncs1`, the cytotoxicity at 70.5 h is -5.72%.
`OC1(CN2CCC(Cc3ncccn3)CC2)CCOCC1`: the cytotoxicity at 70.5 h stood at 13.1%.
Consider `Cc1nc(N)cc(C2CCN2CCOc2ccccc2)n1` (configuration not stated), for which the cytotoxicity at 70.5 h was -6.55%.
Then `Cc1nc(NC2CCCC2)cc(C2CCN2c2ncccn2)n1` (configuration not stated), with -5.59%; and `CNC(=O)C1CN(c2ccnc(C)n2)CCN1Cc1ccccc1` (configuration not stated), with -3.79%.
Then `Cc1nc(C(=O)N2CCCC2c2cncc(CN3CCCC3)n2)co1` (configuration not stated), with -1.27%; and `Cc1c[nH]c(C2CCCN(Cc3cccc(C(=O)O)c3)C2)n1` (configuration not stated), with -4.03%.
Regarding `Cc1nc(CN2CC(CCCc3ccccn3)(C(=O)N(C)C)C2)co1`, the cytotoxicity at 70.5 h is -1.84%.
`Cc1nc(CN2CCC2(CCCc2ccccn2)C(=O)N(C)C)co1` (configuration not stated): the cytotoxicity at 70.5 h is -5.18%.
With `CN(C)C(=O)C1(CCCc2ccccn2)CCN1Cc1nccn1C` (configuration not stated), the cytotoxicity at 70.5 h was -6.27%.
On to `O=C(c1cc[nH]n1)N1CCCC1c1cncc(CN2CCOCC2)n1` (configuration not stated), for which the cytotoxicity at 70.5 h is -4.87%.
Take `Cn1cc(-c2ccc(C3CCCCN3Cc3cccnc3)cn2)cn1` (configuration not stated): the cytotoxicity at 70.5 h is -1.27%.
Regarding `Cc1cn[nH]c1C1CCCN1Cc1ccc(F)c(F)c1` (configuration not stated), the cytotoxicity at 70.5 h was -0.872%.
The same measure for `CCn1cc(S(=O)(=O)N2CCCCCC2c2cc(C)on2)cn1` (configuration not stated): 2.09%.
Turning to `Cc1cc2ccncc2n1CC1(O)CCN(C(=O)c2ccccn2)CC1`, the cytotoxicity at 70.5 h is -1.41%.
Take `Cc1nc(C)c(C(=O)N2Cc3ccccc3OCC2Cn2ccnc2)s1` (configuration not stated): the cytotoxicity at 70.5 h amounted to 2.25%.
Regarding `CN1C[C@@H](C(=O)N2CCCOCC2)[C@@]2(CCc3ccccc3C(=O)N2)C1`, the cytotoxicity at 70.5 h is -1.32%.
As to `Cc1nc(C)c(C(=O)N2Cc3ccccc3OCC2Cn2ccnc2)o1` (configuration not stated), the cytotoxicity at 70.5 h is -1.03%.
As for `CC(C(=O)N1CCCCC1)n1nc(-c2cccs2)cc(N)c1=O` (configuration not stated), the cytotoxicity at 70.5 h was found to be 14.9%.
Consider `O=C(Cn1cnc2cc3c(cc21)OCCCO3)NC1CCCC1`, for which the cytotoxicity at 70.5 h was found to be 25.4%.
Then `O=C(Cn1cnc2cc3c(cc21)OCCCO3)NC1CCCCC1`, with -1.58%; and `CN1CCc2nc3cc(C(=O)NCc4cccs4)ccc3c(=O)n2CC1`, with -2.15%.
For `COCCNC(=O)c1ccc2c(=O)n3c(nc2c1)CCN(C)CC3`, the cytotoxicity at 70.5 h was found to be 7.41%.
The same measure for `CC(C)N1CCCC(Cc2nccnc2Cl)CC1` (configuration not stated): 0.246%; for `CN(C)c1ncc(I)c(C2CCCCN2S(C)(=O)=O)n1` (configuration not stated): -3.68%; for `CCn1nc(C)c(CN(Cc2ccccn2)Cc2ccccc2Cl)c1C`: 10.9%.
The same measure for `CN(C)Cc1cnc(CC2CCN(CCc3ccccc3)CC2)cn1`: 0.387%; for `COc1ccccc1CN1CCC(Cc2cnc(CN(C)C)cn2)CC1`: -2.82%; for `O=C(CN1C[C@H]2C[C@H](OCc3ccccc3)C[C@H]2C1)N1CCOCC1`: -4.18%.
As for `Cc1nn(C)cc1S(=O)(=O)N[C@@H]1CCC[C@@H](n2ccnc2)[C@@H]1O`, the cytotoxicity at 70.5 h was -6.03%.
Consider `Cc1ccnn1CCC(=O)N1CCCC[C@@]2(C)[C@@H]1CCC(=O)N2C`, for which the cytotoxicity at 70.5 h is -4.62%.
Turning to `CC(C)N1CCCC(Cc2nccnc2Cl)C1` (configuration not stated), the cytotoxicity at 70.5 h is -4.45%.
Consider `CN1CC(=O)N(C2CCNCC2)Cc2c(NCC(C)(C)C)ncnc21`, for which the cytotoxicity at 70.5 h was -9.73%.
Then `CC(C)CC(=O)Nc1ccc(Oc2ccsc2C(=O)O)cc1`, with 1.56%.
In the case of `COCC(=O)Nc1ccc(Oc2ccsc2C(=O)O)cc1`, the cytotoxicity at 70.5 h is -6.01%.
As for `COc1ncc(C(F)(F)F)c(C(=O)O)c1Cl`, the cytotoxicity at 70.5 h stood at 24.8%.
Turning to `COC(=O)c1ccc(-c2cc(C(F)(F)F)cc(N(C)C)n2)cc1`, the cytotoxicity at 70.5 h is -6.66%.
In the case of `COc1cc(OC)cc(-c2cc(N)on2)c1`, the cytotoxicity at 70.5 h is -7.45%.
Then `CCOC(=O)[C@H]1CNC[C@@H]1C(=O)OCC`, with 3.89%; and `OCc1cn(Cc2cccc(F)c2)nn1`, with -12.4%; and `CC(O)c1cn(Cc2ccc(F)cc2)nn1` (configuration not stated), with -4.74%.
With `OC1(CNc2ccccc2)CCNCC1`, the cytotoxicity at 70.5 h was -7.62%.
On to `N#Cc1cc2cc(Cl)cnc2nc1O`, for which the cytotoxicity at 70.5 h is -12%.
As to `O=C(CC(SC1CCCCC1)C(=O)O)c1ccc(Cl)cc1` (configuration not stated), the cytotoxicity at 70.5 h is -4.64%.
For the molecule `CCOc1ccc(C(=O)CC(SC2CCCCC2)C(=O)O)cc1` (configuration not stated), the cytotoxicity at 70.5 h was -6.29%.
On to `CNc1nc2ncc(Cl)cc2cc1C#N`, for which the cytotoxicity at 70.5 h was -2.12%.
Regarding `COc1ccc(NCC2(O)CCNCC2)cc1OC`, the cytotoxicity at 70.5 h is 6.97%.
Turning to `CCSCCN1CCCN(S(C)(=O)=O)CC1`, the cytotoxicity at 70.5 h is -2.21%.
Consider `CCOc1nnc(CN(CC)CC(=O)NC(C)(C)C)s1`, for which the cytotoxicity at 70.5 h stood at 10.3%.
The same measure for `N#CCCn1cnc2c(Br)cc(Br)cc2c1=O`: -3.9%; for `Cc1cc(F)c2c(c1)CCCN2Cc1cc(=O)n(C)c(=O)n1C`: -8.84%; for `CC(C)c1nnc(NC(=O)N(C)Cc2ccc(C(N)=O)cc2)s1`: -4.8%.
Then `CC(C)c1nnc(NC(=O)N(C)Cc2ccncc2)s1`, with -9.39%.
As to `CCN(CC1CCOC1)C(=O)NCc1nnc2n1CCCCC2` (configuration not stated), the cytotoxicity at 70.5 h was -7.23%.
As to `CCOc1nnc(CN(CC)CC(=O)Nc2c(F)cccc2F)s1`, the cytotoxicity at 70.5 h is -5.55%.
Turning to `Cc1ccc(S(=O)(=O)N2CCN(CCC(N)=O)CC2)s1`, the cytotoxicity at 70.5 h was -7.66%.
As to `CCN(CC1CCOC1)C(=O)NCc1nnc2n1CCC2` (configuration not stated), the cytotoxicity at 70.5 h was -5.15%.
Turning to `COc1ccc(N2CCC(N(C)C(=O)Nc3ccncc3)CC2)cc1`, the cytotoxicity at 70.5 h is 0.31%.
`Cc1ccc(F)c2c1CCCN2Cc1cc(=O)n(C)c(=O)n1C`: the cytotoxicity at 70.5 h was -7.78%.
As for `CN(C(=O)Nc1cccnc1)C1CCN(c2ccc(Cl)cc2)CC1`, the cytotoxicity at 70.5 h was found to be 0.04%.
Take `Cn1cc(C2CCCN2C(=O)c2cnc(-c3ccco3)s2)cn1` (configuration not stated): the cytotoxicity at 70.5 h was -4.49%.
`CCn1cc(S(=O)(=O)Nc2nc3c(s2)CC(C)CC3)cn1` (configuration not stated): the cytotoxicity at 70.5 h was -6.65%.
For `Cc1ccccc1-n1cnc(Cl)c1CO`, the cytotoxicity at 70.5 h worked out at 18.4%.
On to `c1ccc(-c2nc(CCNCc3cccnc3)co2)cc1`, for which the cytotoxicity at 70.5 h was -4.67%.
Then `Cc1cc(NCCSc2nccn2C)n2ncnc2n1`, with 17.1%.
With `c1ccc(-c2nc(CCNCc3ccncc3)co2)cc1`, the cytotoxicity at 70.5 h was -5.13%.
Turning to `COc1ccc(Br)cc1SCCS(C)(=O)=O`, the cytotoxicity at 70.5 h was -4.19%.
Take `Cc1ccc2c(c1)OC(C)CN2C(=O)c1c[nH]c(C)cc1=O` (configuration not stated): the cytotoxicity at 70.5 h was 2.52%.
Consider `CC1c2ccc(F)cc2CCN1C(=O)c1[nH]c(=O)[nH]c(=O)c1N` (configuration not stated), for which the cytotoxicity at 70.5 h was -1.6%.
With `CC1c2cc(F)ccc2CCN1C(=O)c1[nH]c(=O)[nH]c(=O)c1N` (configuration not stated), the cytotoxicity at 70.5 h was -2.24%.
`Cc1[nH]ccc1C(=O)N1CCOCC12CCCC2`: the cytotoxicity at 70.5 h is -0.873%.
For `O=C(c1ccc[nH]1)N1CCOCC12CCCC2`, the cytotoxicity at 70.5 h was 30.2%.
The same measure for `Cc1ccc(C(=O)Nc2ccc3c(c2)N(C)CCN(C)C3)c(=O)[nH]1`: -7.32%.
As to `COCCN(Cc1ccccc1)C(=O)c1csc(-c2nnc[nH]2)n1`, the cytotoxicity at 70.5 h was -5.25%.
Regarding `CC1CCCCN1C(=O)c1ccc(=O)[nH]n1` (configuration not stated), the cytotoxicity at 70.5 h is -5.98%.
On to `CCc1nnsc1C(=O)N(C)Cc1nnc2n1CCC2`, for which the cytotoxicity at 70.5 h worked out at 5.35%.
Turning to `O=C(O)c1cc(NS(=O)(=O)c2ccccc2F)ccc1N1CCSCC1`, the cytotoxicity at 70.5 h was -8.7%.
`Cc1cccc(CS(=O)(=O)CC(O)Cn2cccn2)c1` (configuration not stated): the cytotoxicity at 70.5 h is -4.24%.
With `CC(C)c1nc(CS(=O)(=O)Cc2noc(C3CC3)n2)cs1`, the cytotoxicity at 70.5 h was -13.6%.
As to `Cc1cccc(CN2CCCCC2c2n[nH]cc2-c2cc(C)no2)c1` (configuration not stated), the cytotoxicity at 70.5 h is -6.6%.
Then `CN1C[C@@H](C(=O)N(C)C)[C@@]2(CCc3ccccc3C(=O)N2)C1`, with 0.772%.
For the molecule `c1cnc(Nc2cc(CCC3CCCNC3)ccn2)cn1` (configuration not stated), the cytotoxicity at 70.5 h was -4.31%.
With `CC(C)N1CCCCC1c1nc(N(C)C)ncc1I` (configuration not stated), the cytotoxicity at 70.5 h is 23.9%.
Turning to `Cc1nc(C)c(C(=O)N2Cc3ccccc3OCC2CN(C)C)o1` (configuration not stated), the cytotoxicity at 70.5 h worked out at 1.45%.
For the molecule `COc1ccccc1CN(CCCn1ccnc1)CC1CCOC1` (configuration not stated), the cytotoxicity at 70.5 h was -4.43%.
In the case of `CC(C)OCCCN(Cc1cnn(C)c1)Cc1ccccn1`, the cytotoxicity at 70.5 h was 21.5%.
Take `Fc1ccccc1CN(CCCn1ccnc1)CC1CCOC1` (configuration not stated): the cytotoxicity at 70.5 h stood at 9.07%.
